According to ChEMBL document CHEMBL1201862, “PubChem BioAssay data set” (2004):
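Compound exposure: 48 hours, 5 concentrations, 96-well plates. GI50 is the concentration that inhibits growth by half.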 The source made the active and inactive calls. No stated cut-off is given here; in the data, active = GI50 up to about 1.1 µM and inactive = higher.

How the values were obtained:
Assay in all cases: DTP human tumour cell line panel, 48 h
[1] = test system: DU-145
[2] = test system: TK-10
[3] = test system: SR
[4] = test system: NCI-H522
[5] = test system: SK-OV-3
[6] = test system: SF-295
[7] = test system: MDA-MB-435
[8] = test system: A549
[9] = test system: CAKI-1
[10] = test system: 786-0
[11] = test system: EKVX
[12] = test system: SK-MEL-5
[13] = test system: OVCAR-3
[14] = test system: LOX IMVI
[15] = test system: U-251
[16] = test system: HCT-15
[17] = test system: SNB-75
[18] = test system: NCI-H23
[19] = test system: ACHN
[20] = test system: MCF7
[21] = test system: HCC 2998
[22] = test system: HOP-62
[23] = test system: RXF 393
[24] = test system: UO-31
[25] = test system: SF-268
[26] = test system: UACC-62
[27] = test system: NCI-H460
[28] = test system: NCI/ADR-RES
[29] = test system: PC-3
[30] = test system: OVCAR-4
[31] = test system: MDA-MB-231
[32] = test system: KM12
[33] = test system: T47D
[34] = test system: BT-549
[35] = test system: CCRF-CEM
[36] = test system: SK-MEL-2
[37] = test system: IGROV-1
[38] = test system: UACC-257
[39] = test system: MDA-N
[40] = test system: SNB-19
[41] = test system: OVCAR-5
[42] = test system: K562
[43] = test system: MOLT-4
[44] = test system: COLO 205
[45] = test system: HCT-116
[46] = test system: SN12C
[47] = test system: M14
[48] = test system: OVCAR-8
[49] = test system: A498
[50] = test system: NCI-H226
[51] = test system: RPMI-8226
[52] = test system: SK-MEL-28
[53] = test system: Malme-3M
[54] = test system: SW-620
[55] = test system: SF-539
[56] = test system: HT-29
[57] = test system: Hs-578T
[58] = test system: HL-60
[59] = test system: HOP-92

SMILES: O=C(OCC(Cl)(Cl)Cl)N1CC[C@@H](C2CCCCC2)C1
- GI50 [1]: 35.6 µM (inactive)
- GI50 [2]: 30.1 µM (inactive)
- GI50 [3]: 32.2 µM (inactive)
- GI50 [4]: 21.7 µM (inactive)
- GI50 [5]: 42.6 µM (inactive)
- GI50 [6]: 19 µM (inactive)
- GI50 [7]: < 0.01 µM (active)
- GI50 [8]: 27.3 µM (inactive)
- GI50 [9]: 27 µM (inactive)
- GI50 [10]: 20.6 µM (inactive)
- GI50 [11]: 23.1 µM (inactive)
- GI50 [12]: 18.1 µM (inactive)
- GI50 [13]: 18.1 µM (inactive)
- GI50 [14]: 40.6 µM (inactive)
- GI50 [15]: 0.1 µM (active)
- GI50 [16]: 18.7 µM
- GI50 [17]: 21.7 µM (inactive)
- GI50 [18]: 20.2 µM (inactive)
- GI50 [19]: 22.8 µM (inactive)
- GI50 [20]: 22.1 µM (inactive)
- GI50 [21]: 18.6 µM (inactive)
- GI50 [22]: 20.4 µM (inactive)
- GI50 [23]: 18.3 µM (inactive)
- GI50 [24]: 20.7 µM (inactive)
- GI50 [25]: 17.3 µM (inactive)
- GI50 [26]: 27.7 µM (inactive)
- GI50 [27]: 21 µM (inactive)
- GI50 [28]: 18 µM (inactive)
- GI50 [29]: 21.2 µM (inactive)
- GI50 [30]: 18.6 µM (inactive)
- GI50 [31]: 43.3 µM (inactive)
- GI50 [32]: 17 µM (inactive)
- GI50 [33]: 32.7 µM (inactive)
- GI50 [34]: 38.2 µM (inactive)
- GI50 [35]: 21.5 µM (inactive)
- GI50 [36]: 18.3 µM (inactive)
- GI50 [37]: 75.5 µM (inactive)
- GI50 [38]: 28.4 µM (inactive)
- GI50 [39]: 31 µM (inactive)
- GI50 [40]: 19.7 µM (inactive)
- GI50 [41]: 23.7 µM (inactive)
- GI50 [42]: 21.5 µM (inactive)
- GI50 [43]: 33.8 µM (inactive)
- GI50 [44]: 23.6 µM (inactive)
- GI50 [45]: 29.6 µM (inactive)
- GI50 [46]: 29.3 µM (inactive)
- GI50 [47]: 34.8 µM (inactive)

SMILES: N#Cc1c(-c2ccccc2)c(/C=N/c2cccc(C(F)(F)F)c2)c(=O)n2c1[nH]c1ccccc12
- GI50 [2]: 32.9 µM (inactive)
- GI50 [4]: 15.1 µM (inactive)
- GI50 [5]: 26.9 µM (inactive)
- GI50 [6]: 46.2 µM (inactive)
- GI50 [48]: 24.8 µM (inactive)
- GI50 [7]: 39.5 µM (inactive)
- GI50 [8]: 23.6 µM (inactive)
- GI50 [9]: 2.07 µM (inactive)
- GI50 [49]: 34.4 µM (inactive)
- GI50 [10]: 36.1 µM (inactive)
- GI50 [11]: 19.1 µM (inactive)
- GI50 [12]: 52 µM (inactive)
- GI50 [14]: 32.6 µM (inactive)
- GI50 [15]: 45 µM (inactive)
- GI50 [16]: 33 µM
- GI50 [17]: 46 µM (inactive)
- GI50 [18]: 34.9 µM (inactive)
- GI50 [19]: 30.1 µM (inactive)
- GI50 [50]: 26.7 µM (inactive)
- GI50 [20]: 35.6 µM (inactive)
- GI50 [21]: 30.8 µM (inactive)
- GI50 [22]: 30.5 µM (inactive)
- GI50 [23]: 32.8 µM (inactive)
- GI50 [24]: 7.62 µM (inactive)
- GI50 [25]: 35.6 µM (inactive)
- GI50 [27]: 14.5 µM (inactive)
- GI50 [28]: 25.1 µM (inactive)
- GI50 [51]: 6.35 µM (inactive)
- GI50 [29]: 31 µM (inactive)
- GI50 [30]: 51.1 µM (inactive)
- GI50 [31]: 42.3 µM (inactive)
- GI50 [32]: 19.4 µM (inactive)
- GI50 [33]: 35.2 µM (inactive)
- GI50 [34]: 48 µM (inactive)
- GI50 [35]: 40.4 µM (inactive)
- GI50 [52]: 59 µM (inactive)
- GI50 [36]: 22.1 µM (inactive)
- GI50 [37]: 29.2 µM (inactive)
- GI50 [38]: 32.5 µM (inactive)
- GI50 [39]: 28 µM (inactive)
- GI50 [40]: 30.5 µM (inactive)
- GI50 [41]: 10.8 µM (inactive)
- GI50 [53]: 42.3 µM (inactive)
- GI50 [44]: > 100 µM (inactive)
- GI50 [45]: 29.6 µM (inactive)
- GI50 [54]: 30.2 µM (inactive)
- GI50 [46]: 17.4 µM (inactive)
- GI50 [55]: 16.7 µM (inactive)
- GI50 [47]: 32.3 µM (inactive)

SMILES: Cc1cccc(Cl)c1NC(=O)/C=C/c1ccccc1
- GI50 [1]: 67.6 µM (inactive)
- GI50 [2]: 40.6 µM (inactive)
- GI50 [56]: 59.3 µM (inactive)
- GI50 [3]: > 100 µM (inactive)
- GI50 [4]: 49.3 µM (inactive)
- GI50 [5]: 37.3 µM (inactive)
- GI50 [6]: 36.6 µM (inactive)
- GI50 [57]: 33 µM (inactive)
- GI50 [48]: 26.1 µM (inactive)
- GI50 [7]: > 100 µM (inactive)
- GI50 [8]: 94 µM (inactive)
- GI50 [9]: 76.9 µM (inactive)
- GI50 [49]: > 100 µM (inactive)
- GI50 [10]: 36.3 µM (inactive)
- GI50 [11]: 49.2 µM (inactive)
- GI50 [12]: 95.5 µM (inactive)
- GI50 [13]: > 100 µM (inactive)
- GI50 [14]: > 100 µM (inactive)
- GI50 [15]: 87.7 µM (inactive)
- GI50 [16]: > 100 µM
- GI50 [58]: 84.1 µM (inactive)
- GI50 [17]: 24.2 µM (inactive)
- GI50 [18]: > 100 µM (inactive)
- GI50 [19]: 42.3 µM (inactive)
- GI50 [50]: > 100 µM (inactive)
- GI50 [20]: 32.5 µM (inactive)
- GI50 [21]: 74.6 µM (inactive)
- GI50 [22]: 74.6 µM (inactive)
- GI50 [25]: 67 µM (inactive)
- GI50 [26]: > 100 µM (inactive)
- GI50 [27]: 86.3 µM (inactive)
- GI50 [51]: 32.3 µM (inactive)
- GI50 [29]: > 100 µM (inactive)
- GI50 [30]: 26.9 µM (inactive)
- GI50 [31]: 32.4 µM (inactive)
- GI50 [32]: 74.5 µM (inactive)
- GI50 [33]: 36.7 µM (inactive)
- GI50 [34]: > 100 µM (inactive)
- GI50 [35]: > 100 µM (inactive)
- GI50 [52]: > 100 µM (inactive)
- GI50 [36]: > 100 µM (inactive)
- GI50 [37]: 97.5 µM (inactive)
- GI50 [38]: > 100 µM (inactive)
- GI50 [39]: > 100 µM (inactive)
- GI50 [40]: > 100 µM (inactive)
- GI50 [41]: > 100 µM (inactive)
- GI50 [42]: > 100 µM (inactive)
- GI50 [53]: > 100 µM (inactive)
- GI50 [43]: > 100 µM (inactive)
- GI50 [44]: > 100 µM (inactive)
- GI50 [45]: 39.4 µM (inactive)
- GI50 [54]: > 100 µM (inactive)
- GI50 [46]: 80.5 µM (inactive)
- GI50 [55]: 44.8 µM (inactive)
- GI50 [47]: > 100 µM (inactive)
- GI50 [59]: 29.6 µM (inactive)
